Values joined by “and” are separate entries in the source; they are usually repeats but may differ in a detail not shown here. Equal values may be shown once. Where a SMILES comes first, the peptide text is derived from it.
Tests used:
Format in all cases: cell-based
[1] = test system: HT-29 (Colon carcinoma) cells; assay: Screening of cytotoxic activity of peptides by MTT assay on HT-29 cells; details: for % inhibition (peptide screening): HT-29 cancerous cells, MTT, Fig. 1
Description: Different concentrations of the peptides (1 μL, 3 μL, 5 L, 10 μL, 20 μL) were used to treat the cancerous and normal cells consecutively (Inkielewicz-Stepniak et al. [2014]). The percentage inhibition was calculated.

[2] = test system: HT-29 (Colon carcinoma) cells; assay: MTT assay of nanoparticles, P1 and conjugates on HT-29; details: 24 h exposure, 5000 cells/well, 570 nm, triplicates
Description: Cell lines were acquired from NCCS—National Centre for Cell Science, Pune, India. The HT-29 (Colon carcinoma) and MDA MB-231 (Breast cancer) cells were plated into 25-mm^2 T-flasks after thawing them at 37 °C in a water bath for few minutes. The thawed cells were transferred in a centrifuge tube and centrifuged for 3 min at 2000 rpm/min. The cells were, thus, collected discarding the supernatant and mixed well in Dulbecco’s modified Eagle’s medium (DMEM) solution with 12% fetal bovine serum, and antibiotics (streptopenicillin and amphotericin B solution, Sigma). Later, they were plated in 25 mm^2 in the same DMEM solution, individually. The T-flasks containing the cells were incubated for 24 h in humidified environment with 5% CO2. These cells after 24 h were washed with phosphate buffer saline (PBS). The medium was regularly changed for the cells to reach 50% confluence (Hajiaghaalipour et al [2015]). To check the viability of cells, MTT assay was carried out and 96-well plates were used to seed the cell lines of interest at 5000 cells/well and incubated overnight at 37 °C in an incubator with 5% CO2. After incubation, the cells were treated with different concentrations (1, 5, 10 μg/mL) of P1, AgNPs, AuNPs, P1–AgNP and P1–AuNP conjugates. The plates along with the treated cells were again incubated for 24 h at the same condition. […] The measurement of MTT assay was analyzed with Elisa Reader (Thermo Scientific, Multiskan Spectrum) at 570 nm (Inkielewicz-Stepniak et al [2014]). Percentage inhibition of cells was calculated according to the following equation: Cytotoxicity(%)=(experimentalabsorbance570nmofexposedcells/absorbance570nmofunexposedcells)×100.
All experiments were done in triplicates and the results were represented as mean ± SEM. The experimental data were read by two-way analysis of variance (ANNOVA). […] The IC-50 value was calculated using Microsoft Excel 2007 software (logarithmic transformation of X values and nonlinear regression sigmoidal dose–response analysis with variable slope—with bottom and top constraints set at 0 and 100, resp.).

MDA MB-231 cells = assay: PI/AO staining for dead/live cells, MDA MB-231; details: MDA MB-231, 1 µg/mL, 24 h, Figs. 7, 9
Description: (§1) HT-29 and MDA MB-231 cells were plated at a density of 1 × 10^6 cells/mL in 6-well tissue culture plates. They were treated with 1 µg/mL each of AgNP, AuNP, P1, P1–AgNP and P1–AuNP conjugated samples and were incubated in at 37 °C in 5% CO2 for 24 h. The cells were then harvested and washed twice using PBS after centrifugation at 2000 rpm for 5 min. An equal volume (10 µg/mL) of fluorescent dyes, propidium iodide (PI)/acridine orange (AO) was added to the cellular pellet. These freshly stained cells were observed under an inverted fluorescent microscope within 30 min (Banerjee and Ravishankar [2017]).
(§2) The nucleic acid-binding dyes propidium iodide (PI) and acridine orange (AO) help us to detect the dead cells and live cells under the microscope. AO permeates both dead and live cells; thus, it stains all nucleated cells to generate green fluorescence, whereas PI identifies the dead cells only and fluoresce red. The treated cancer cells were both stained with PI and AO equally, and were observed under fluorescence microscope. The results are obtained on swapping of the images to have an apparent understanding of the drug effects (Hajrezaie et al [2015]; Hajiaghaalipour et al [2015]).

HT-29 cells = assay: PI/AO staining for dead/live cells, HT-29; details: HT-29, 1 µg/mL, 24 h, Figs. 6, 8
Description: as §1, §2

[3] = test system: NIH3T3 (Mouse embryo fibroblast) cells; assay: Cytotoxicity on normal NIH3T3 cells (MTT assay)
Description: Above-mentioned peptides (P1, P2, P3, P4, and P5) obtained from other sources were screened for cytotoxicity by MTT assay on NIH3T3 (Mouse embryo fibroblast) cells (normal) and HT-29 (Colon carcinoma) cells (cancerous) by MTT assay. Different concentrations of the peptides (1 μL, 3 μL, […], 10 μL, 20 μL) were used to treat the cancerous and normal cells consecutively (Inkielewicz-Stepniak et al. [2014]). The percentage inhibition was calculated.

[4] = test system: MDA MB-231 (Breast cancer) cells; assay: MTT assay of nanoparticles, P1 and conjugates on MDA MB-231; details: for % inhibition: MTT, 24 h exposure, 5000 cells/well, 570 nm, triplicates
Description: Cell lines were acquired from NCCS—National Centre for Cell Science, Pune, India. The HT-29 (Colon carcinoma) and MDA MB-231 (Breast cancer) cells were plated into 25-mm^2 T-flasks after thawing them at 37 °C in a water bath for few minutes. The thawed cells were transferred in a centrifuge tube and centrifuged for 3 min at 2000 rpm/min. The cells were, thus, collected discarding the supernatant and mixed well in Dulbecco’s modified Eagle’s medium (DMEM) solution with 12% fetal bovine serum, and antibiotics (streptopenicillin and amphotericin B solution, Sigma). Later, they were plated in 25 mm^2 in the same DMEM solution, individually. The T-flasks containing the cells were incubated for 24 h in humidified environment with 5% CO2. These cells after 24 h were washed with phosphate buffer saline (PBS). The medium was regularly changed for the cells to reach 50% confluence (Hajiaghaalipour et al [2015]). To check the viability of cells, MTT assay was carried out and 96-well plates were used to seed the cell lines of interest at 5000 cells/well and incubated overnight at 37 °C in an incubator with 5% CO2. After incubation, the cells were treated with different concentrations (1, 5, 10 μg/mL) of P1, AgNPs, AuNPs, P1–AgNP and P1–AuNP conjugates. The plates along with the treated cells were again incubated for 24 h at the same condition. The stored stock of MTT solution was added to the control and treated cell line samples, and again incubated at 37 °C for 2–3 h. After incubation, the media were carefully removed from the wells and mixed with solubilizing buffer. A purple color solution was visible at this stage. The control solution (without incorporation of nanoparticles/pure incubated cells) and treated samples were again incubated for an hour at 37 °C to ensure that the formazan precipitate was dissolved. The measurement of MTT assay was analyzed with Elisa Reader (Thermo Scientific, Multiskan Spectrum) at 570 nm (Inkielewicz-Stepniak et al [2014]). Percentage inhibition of cells was calculated according to the following equation: Cytotoxicity(%)=(experimentalabsorbance570nmofexposedcells/absorbance570nmofunexposedcells)×100.
All experiments were done in triplicates and the results were represented as mean ± SEM. The experimental data were read by two-way analysis of variance (ANNOVA). Differences were considered significant at p < 0.05. The IC-50 value was calculated using Microsoft Excel 2007 software (logarithmic transformation of X values and nonlinear regression sigmoidal dose–response analysis with variable slope—with bottom and top constraints set at 0 and 100, resp.).

Compound: Boc-P-A-OH [Peptide P3]
- % inhibition (peptide screening) ([1]; lowest concentration 1 µg/mL): 9.12%

Compound: (U^BF)4-OMe [Peptide P2]
- % inhibition (peptide screening) ([1]; lowest concentration 1 µg/mL): 15.93%

Compound: COC(=O)[C@H](CC(C)C)NC(=O)[C@H]1CCCN1C(=O)[C@H](CC(C)C)NC(=O)OC(C)(C)C [Peptide P1, Boc-L-^DP-L-OMe] (HELM PEPTIDE1{[CC(C)(C)OC(=O)[*:2]].L.[dP].L.[CO[*:1]]}$$$$V2.0)
- % inhibition ([2]; HT 29, 1 µg/mL): ~ 19% and 19.69%
- % inhibition ([2]; HT 29, 5 µg/mL): 22.05%
- % inhibition ([2]; HT 29, 10 µg/mL): 27.72%
- PI/AO fluorescent staining, observed state of the cells (MDA MB-231 cells): a number of apoptotic cells as well and very few dead cells
- PI/AO fluorescent staining, observed state of the cells (HT-29 cells): a number of apoptotic cells as well and very few dead cells
- change of NIH3T3 cells due to treatment [3]: do not show much change
- IC50 rank among the five peptides ([1]; HT-29, MTT, Fig. 1 legend): best IC50 value
- % inhibition (peptide screening) ([1]; lowest concentration 1 µg/mL): 23.22%
- % inhibition ([4]; MDA MB 231, 1 µg/mL): 29.98%
- % inhibition ([4]; MDA MB 231, 5 µg/mL): 37.11%
- % inhibition ([4]; MDA MB 231, 10 µg/mL): 60.69%
- inhibition of up to (concentration not given) ([4]; MDA MB-231, MTT, Fig. 5b/5d, concentration not given): around 29%

Compound: Boc-βGly-βGly-OMe [Peptide P5]
- % inhibition (peptide screening) ([1]; 5 µg/mL): around 20%

Compound: Boc-P-U-OH [Peptide P4]
- % inhibition (peptide screening) ([1]; 5 µg/mL): around 20%
